The text below walks through data of article PMC4778904, “The Curcumin Analog C-150, Influencing NF-κB, UPR and Akt/Notch Pathways Has Potent Anticancer Activity In Vitro and In Vivo” (PLoS ONE, 2016).

This experiment deals with T1, PKC-alpha (Homo sapiens, UniProt P17252).
T1 construct: gene PRKCA
The experiment can be described thus: IMAP-FP kinase activity assay (Proteros selectivity panel), single concentration […], ATP at Km app; […] inhibition. The class given is biochemical.

Broadly, the inhibition is the share of the control response that was lost under treatment.

The compound `C=CC(=O)NC(c1ccccc1)C(C(=O)/C=C/c1cccc(O)c1)C(=O)/C=C/c1cccc(O)c1` (stereo not shown) [compound 3, N-((E)-5-(3-hydroxyphenyl)-2-((E)-3-(3-hydroxyphenyl)acryloyl)-3-oxo-1-phenylpent-4-en-1-yl)acrylamide] had an inhibition at 1 µM of 32.8%.
